Test results reported in patent publication EP3027627B1, “2-[5-[N-(4-FLUOROPHENYL)CARBAMOYL]PYRIMIDIN-2-YLSULFANYLMETHYL]-4-(TRIFLUOROMETHOXY)PHENYL]BORONIC ACID” (Syntrix Biosystems Inc., priority 2013, dated 2015).

Legend:
[1] = Stability in human liver microsomes (NADPH-dependent); format: in vitro ADME
Excerpt: Liver microsomes are an in vitro model for in vivo metabolism and elimination of a drug by the liver (and gut) cytochrome P450 system. A compound's stability in liver microsomes in vitro is predictive of its metabolism and elimination in vivo. We examined the stability of SX-682 in liver microsomes together with several other cogeners to quantify the microsomal stability of SX-682 and identify potential structure-activity relationships (SAR) predictive of stability or instability (see Figure 5).
The compounds were incubated in duplicate with human liver microsomes at 37°C. The reaction contained microsomal protein in 100 mM potassium phosphate, 2 mM NADPH, 3 mM MgCl2, pH 7.4. A control was run for each compound omitting NADPH to detect NADPH-independent degradation. An aliquot was removed from each experimental and control reaction at 0, 10, 20, 30, and 60 minutes and mixed with an equal volume of ice-cold Stop Solution (0.3% acetic acid in acetonitrile containing haloperidol, diclofenac, or other internal standard). Stopped reactions were incubated for at least ten minutes at -20°C, and an additional volume of water was added. The samples were centrifuged to remove precipitated protein, and the supernatants were analyzed by LCMS/MS to quantitate the remaining compound. Data were converted to percent remaining by dividing by the time zero concentration value. Data were fit to a first-order decay model to determine half-life. Intrinsic clearance was calculated from the half-life and the protein concentrations: CLint = ln(2)/(t½ [microsomal protein]).

[2] = Stability in human plasma; format: in vitro ADME
Description: The in vitro stability of SX-682 and the cogeners of Metabolic Stability Example 1 (Figure 5) were further studied in human plasma. The reactions were initiated by the addition of 5 µL of a 500 µM DMSO stock solution to 495 µL of preheated plasma solution to yield a final concentration of 5 µM. The assays were performed in a heat block at 37°C and conducted in duplicate. Samples (50 µL) were taken at 0, 30, 60, 120, 240 min and added to 150 µL acetonitrile in order to deproteinize the plasma. The samples were subjected to vortex mixing for 1 min and then centrifugation for 15 min at 14,000 rpm. The clear supernatants were analyzed by LC-MS.
The in vitro plasma half life (t½) was calculated using the expression t½ = ln(2)/b, where b is the slope found in the linear fit of the natural logarithm of the fraction remaining of the parent compound vs. incubation time.

neutrophils [3] = assay: Murine air-pouch model of inflammation; format: in vivo; details: depending on the dose given
neutrophils [4] = assay: Ozone rat model of pulmonary inflammation (neutrophil influx into BALF); format: in vivo, Sprague-Dawley rats; details: for influx of neutrophils into the lungs (BALF) as compared to control rats treated with vehicle only: 1 mg/kg intravenously once at t = 0, 1 ppm ozone for 4 hours, BALF at t = 24 hours, n = 4 per cohort
Description: SX-682 was assayed in an in vivo rat model of pulmonary inflammation. Activity in this model of pulmonary inflammation provides evidence that supports the use of SX-682 in the treatment of a number of pulmonary inflammatory diseases, including chronic obstructive pulmonary disease (COPD) and bronchopulmonary dysplasia (BPD). In this experiment, Sprague-Dawley rats (n = 4 per cohort) were dosed intravenously only once at t = 0 with either vehicle control (dimethylformamide/PEG400/saline, 40:40:20), positive inhibitor control (SX-576, 1 mg/kg) or the test compound (SX-682, 1 mg/kg). The rats were then placed in air (negative exposure group; vehicle control only) or 1 ppm ozone (positive exposure group; vehicle control, positive inhibitor control SX-576, and test compound SX-682) for 4 hours. The rats were then sacrificed at t = 24 hours, and the bronchoalveolar lavage fluid (BALF) was collected. The cells were spun down, stained with Wright-Giemsa and counted. In the negative exposure group, no neutrophils were observed when stained. In the ozone exposed rats treated with vehicle however, there was a brisk influx of neutrophils of approximately 14,000 per mL of BALF (see Figure 4).

CXCR1 [5] = molecular target: T1, CXCR1 (Homo sapiens, UniProt P25024); assay: Inhibition of CXCL8-mediated intracellular calcium release, RBL cells stably transfected with CXCR1; format: cell-based; details: CXCL8 25 nM, mean ± SE, n = 4
T1 construct: expressed in transfected cells; host or cells: RBL cells (stably transfected)
T1 sequence (P25024 1-350): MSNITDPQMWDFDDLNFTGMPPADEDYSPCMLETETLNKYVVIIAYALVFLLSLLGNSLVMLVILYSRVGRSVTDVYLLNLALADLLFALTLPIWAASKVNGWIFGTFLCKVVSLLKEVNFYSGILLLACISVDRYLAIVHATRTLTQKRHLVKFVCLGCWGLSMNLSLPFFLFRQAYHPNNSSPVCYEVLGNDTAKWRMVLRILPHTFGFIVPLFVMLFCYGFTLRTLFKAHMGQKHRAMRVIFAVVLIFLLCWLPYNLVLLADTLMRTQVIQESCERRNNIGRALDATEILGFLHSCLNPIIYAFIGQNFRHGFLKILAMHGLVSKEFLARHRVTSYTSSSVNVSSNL
Description: (§1) Briefly, cells (either isolated human neutrophils or RBL cells stably transfected with either CXCR1 or CXCR2) were suspended in HBSS^- (without Ca^2+ and Mg^2+) containing 10 mM HEPES and FLIPR Calcium 3 dye (3.1 x 10^7 cells in total volume 1.7 mL). Cells were aliquoted (200 µL of the cell suspension per tube, 8 tubes total) and 2 µL of the designated compound (with appropriate dilutions) were added to each of 6 tubes. As controls, 2 µL of DMSO (1% final concentration) were added to 2 other tubes. Cells were incubated for 30 min at 37 °C. After dye loading, tubes were centrifuged at 6,000 rpm for 1 min, supernatant was removed and the cell pellet was re-suspended in 200 µL of HBSS^+ (with Ca^2+ and Mg^2+) containing 10 mM HEPES. […] The cell suspension was aliquoted into a 96-well Reading Plate (Coming) in a volume of 90 µL (10^5 cells/well). […] After 15 sec of reading the basal level of fluorescence by FlexStation II, 10 µL of CXCL8 or HBSS^-were automatically transferred from the Compound Plate into the Reading Plate (final concentration of CXCL8 was 25 nM). Changes in fluorescence were monitored (λex = 485 nm, λem = 525 nm) every 5 s for 240 to 500 s at room temperature.
(§2) The maximum change in fluorescence, expressed in arbitrary units over baseline (Max-Min), was used to determine the CXCL8 response. […]

CXCR2 [6] = molecular target: T2, CXCR2 (Homo sapiens, UniProt P25025); assay: Inhibition of CXCL8-mediated intracellular calcium release, RBL cells stably transfected with CXCR2; format: cell-based; details: CXCL8 25 nM, mean ± SE, n = 4
T2 construct: expressed in transfected cells; host or cells: RBL cells (stably transfected)
T2 sequence (P25025 1-360): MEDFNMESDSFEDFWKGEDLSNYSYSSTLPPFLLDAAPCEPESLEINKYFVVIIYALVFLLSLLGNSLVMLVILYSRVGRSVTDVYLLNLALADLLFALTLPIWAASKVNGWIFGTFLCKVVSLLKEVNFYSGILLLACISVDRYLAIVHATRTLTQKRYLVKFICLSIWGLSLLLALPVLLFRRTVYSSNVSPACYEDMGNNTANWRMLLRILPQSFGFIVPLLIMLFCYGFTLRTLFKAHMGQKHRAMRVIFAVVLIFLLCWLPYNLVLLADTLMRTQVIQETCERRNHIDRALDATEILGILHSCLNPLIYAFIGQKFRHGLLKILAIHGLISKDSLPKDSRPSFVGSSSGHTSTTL
Description: as §1, §2

[7] = system: isolated human neutrophils; assay: Inhibition of CXCL8-mediated intracellular calcium release, isolated human neutrophils; format: cell-based; details: Neutrophil; human neutrophils (Human PMNs); CXCL8 25 nM; mean ± SE, n = 4
Description: as §1, §2

CXCR1 [8] = molecular target: T1, CXCR1; assay: Wash-resistant inhibition of CXCL8-mediated calcium flux after inhibitor washout, CXCR1 RBL cells; format: cell-based; details: RBL cells stably transfected with CXCR1; 30 minutes incubation at 37°C with 0.4, 2, 10 µM, then washout; time points up to 12 h
Description: (§3) SX-682 contains a boronic acid moiety that has the potential to form a transient covalent linkage with hydroxyl-bearing amino acid side chains in the binding site of its protein target.
(§4) In order to test this hypothesis, RBL cells (10^7 cells/mL) stably transfected with either CXCR1 or CXCR2 were (1) incubated with SX-682 at various concentrations for 30 minutes at 37°C, (2) washed and resuspended in assay buffer (RPMI/2% serum) at room temperature, and (3) assayed for CXCL8-mediated calcium response at time points up to 12 h after inhibitor washout. The concentrations of SX-682 tested were 0 (positive control), 0 (negative control), 0.4, 2, and 10 µM. At 30 minutes before each time point, a 56.25 µL aliquot of the cells were removed and loaded for 30 minutes at room temperature in the dark with FLIPR-3 reagent (262.5 µl per tube). Following FLIPR-3 incubation, cells were assayed for CXCL8 mediated intracellular calcium release as described in Pharmacology Example 1.

CXCR2 [9] = molecular target: T2, CXCR2; assay: Wash-resistant inhibition of CXCL8-mediated calcium flux after inhibitor washout, CXCR2 RBL cells; format: cell-based; details: RBL cells stably transfected with CXCR2; 30 minutes incubation at 37°C with 0.4, 2, 10 µM, then washout; time points up to 12 h
Description: as §3, §4

[10] = 37°C, 2 mM NADPH, pH 7.4, first-order decay model
[11] = 5 µM, incubation at 37°C, LC-MS/MS detection

t½ (Half-life) [1, 10] [h]	t½ [2, 11] [h]	fold reduction in plasma half-life ([2]; structural comparison with sulfur / F3CO-bearing cogeners) [fold]	IC50 (CXCR1 [5]) [nM]	IC50 (CXCR2 [6]) [nM]	IC50 [7] [nM]	inhibition of CXCL8-mediated intracellular calcium flux sustained after washout (CXCR1 [8])	inhibition of CXCL8-mediated intracellular calcium flux sustained after washout (CXCR2 [9])	fold larger half life than SX-671 or SX-576 [1] [fold]	half-life ([1]; 37°C, 2 mM NADPH, pH 7.4, first-order decay model, read-out: t½ (Half-life)) [h]	half-life at 5 µM ([2]; 5 µM, incubation at 37°C, LC-MS/MS detection, read-out: t½) [h]	Compound	activity on neutrophils in vivo (neutrophils [3])	influx of neutrophils into the lungs (BALF) as compared to control rats treated with vehicle only (neutrophils [4])	inhibition of neutrophil chemotaxis, comparison of the two inhibitors tested (neutrophils [4]; SX-682 vs SX-576, each 1 mg/kg intravenously, ozone exposed rats)	inhibition of neutrophil influx into the BALF sustained after a single dose (neutrophils [4]; single dose of 1 mg/kg intravenously, ozone exposed rats) [h]
6.75	1.88	5									O=C(Nc1ccc(F)cc1)c1ccc(SCc2ccccc2B(O)O)nc1 [SX-517]	both inhibitory and agonist activity on neutrophils were achieved			
0.833	8.88										O=C(Nc1ccc(F)cc1)c1ccc(SCc2cc(OC(F)(F)F)ccc2B(O)O)nc1 [SX-576, reference compound]	both inhibitory and agonist activity on neutrophils were achieved	significantly decreased the influx of neutrophils		
			42 ± 3	20 ± 2	55 ± 6	at least 12 hours	at least 12 hours	6	5.42	11.6	O=C(Nc1ccc(F)cc1)c1cnc(SCc2cc(OC(F)(F)F)ccc2B(O)O)nc1 [SX-682, 2-(2-Boronic acid-5-trifluoromethoxy-benzylsulfanyl)-pyrimidine-5-carboxylic acid (4-fluoro-phenyl)-amide]		significantly decreased the influx of neutrophils	markedly more robust inhibition of neutrophil chemotaxis	24
